Experiments:
[1] = Cytotoxicity against human THP1 cells assessed as cell viability at 10 ug/ml after 24 hrs by CCK-8 assay; format: cell-based; conditions: THP-1 cells, read-out: Activity
THP-1 [2] = test: Antiinflammatory activity in LPS-stimulated human THP1 cells assessed as inhibition of IL-6 release at 10 ug/ml after 24 hrs by ELISA relative to control; format: functional; conditions: THP-1, 24 h
THP-1 [3] = test: Antiinflammatory activity in LPS-stimulated human THP1 cells assessed as inhibition of TNFalpha release at 10 ug/ml after 24 hrs by ELISA relative to control; format: functional; conditions: THP-1, 24 h
[4] = Cytotoxicity against human THP1 cells assessed as cell viability at 1 ug/ml after 24 hrs by CCK-8 assay; conditions: THP-1 cells
THP-1 [5] = test: Antiinflammatory activity in LPS-stimulated human THP1 cells assessed as inhibition of IL-6 release at 1 ug/ml after 24 hrs by ELISA relative to control; format: functional; conditions: THP-1, 24 h
THP-1 [6] = test: Antiinflammatory activity in LPS-stimulated human THP1 cells assessed as inhibition of TNFalpha release at 1 ug/ml after 24 hrs by ELISA relative to control; format: functional; conditions: THP-1, 24 h

Row | Compound | viability at 24 h, 10 ug/ml [1] [%] | inhibition at 10 µg/mL (THP-1 [2]) [%] | inhibition at 10 µg/mL (THP-1 [3]) [%] | viability at 24 h, 1 ug/ml [4] [%] | inhibition at 1 µg/mL (THP-1 [5]) [%] | inhibition at 1 µg/mL (THP-1 [6]) [%]
1 | CCOC(=O)c1cn(-c2ccc([N+](=O)[O-])cc2[N+](=O)[O-])nc1-c1sc(N(CC)c2ccccc2)nc1-c1ccccc1 | 35 | 73 | 0 | – | – | –
2 | CCOC(=O)c1cn(-c2ccc(Cl)cc2)nc1-c1sc(N(C)c2ccccc2)nc1-c1ccccc1 | 23 | 51 | 11 | – | – | –
3 | CCOC(=O)c1cn(-c2ccc([N+](=O)[O-])cc2[N+](=O)[O-])nc1-c1sc(N(C)c2ccccc2)nc1-c1ccccc1 | 17 | 52 | 5 | – | – | –
4 | CCOC(=O)c1cn(-c2ccc(Cl)cc2)nc1-c1sc(N(Cc2ccccc2)c2ccccc2)nc1-c1ccccc1 | 2 | 20 | 7 | – | – | –
5 | CCOC(=O)c1c[nH]nc1-c1sc(N(C)c2ccccc2)nc1-c1ccccc1 | 26 | 71 | 5 | – | – | –
6 | CCOC(=O)c1cn(-c2ccccc2)nc1-c1sc(N(CC)c2ccccc2)nc1-c1ccccc1 | 23 | 47 | 0 | – | – | –
7 | CCOC(=O)c1cn(-c2ccc(F)cc2)nc1-c1sc(N(CC)c2ccccc2)nc1-c1ccccc1 | 22 | 48 | 0 | – | – | –
8 | CCOC(=O)c1c[nH]nc1-c1sc(N(Cc2ccccc2)c2ccccc2)nc1-c1ccccc1 | 23 | 78 | 13 | – | – | –
9 | CCOC(=O)c1c[nH]nc1-c1sc(N(CC)c2ccccc2)nc1-c1ccccc1 | 39 | 56 | 14 | – | – | –
10 | CCOC(=O)c1cn(-c2ccc(Cl)cc2)nc1-c1sc(N(CC)c2ccccc2)nc1-c1ccccc1 | 29 | 58 | 2 | – | – | –
11 | CCOC(=O)c1cn(-c2ccccc2)nc1-c1sc(N(Cc2ccccc2)c2ccccc2)nc1-c1ccccc1 | 21 | 53 | 12 | – | – | –
12 | CCOC(=O)c1cn(-c2ccccc2)nc1-c1sc(N(C)c2ccccc2)nc1-c1ccccc1 | 25 | 52 | 0 | – | – | –
13 | CCOC(=O)c1cn(-c2ccc(F)cc2)nc1-c1sc(N(Cc2ccccc2)c2ccccc2)nc1-c1ccccc1 | 10 | 46 | 16 | – | – | –
14 | C[C@@H]1C[C@H]2[C@@H]3CCC4=CC(=O)C=C[C@]4(C)[C@@]3(F)[C@@H](O)C[C@]2(C)[C@@]1(O)C(=O)CO [DEXAMETHASONE] | – | – | – | 0 | 85 | 72
15 | CCOC(=O)c1cn(-c2ccc(F)cc2)nc1-c1sc(N(C)c2ccccc2)nc1-c1ccccc1 | 33 | 61 | 4 | – | – | –
